Patent US7566737B2 (Genfit, priority 2002, dated 2009)

Assays:
[1] = test system: Human normal primary fibroblasts; assay: Antioxidant properties on cell cultures (carboxy-H2DCFDA fluorescence, AAPH stress), fibroblasts; format: cell-based; conditions: AAPH 750 μM; for antioxidant properties on cell cultures (in words): 25 μM for 24 h
Experimental: (§1) The reduction in the intensity of the emitted fluorescence signal was determined in cells treated with the compounds in the following manner.
(§2) Prior to stress the cells with an oxidative agent such as AAPH (CAS number 2997-92-4), cells are incubated with compounds of interest at 25 μM for 24 h. Then the culture medium is discarded and cells are rinsed two times with PBS. Cells are then incubated 30 min at 37° C. with a cell-permeant indicator for reactive oxygen species that is nonfluorescent until the acetate groups are removed by intracellular esterases and oxidation occurs within the cell 5-(and-6)-carboxy-2′,7′-dichlorodihydrofluorescein diacetate (carboxy-H2DCFDA). The probes are prepared in PBS and incubated at the final concentration of 25 μM. After the incubation with the probe, cells are rinsed and incubated another 30 min with the oxidative solution containing AAPH at 750 μM in culture medium without phenol red and serum.
(§3) The fluorescence is then measured with a fluorimeter with the following wavelength, […].
(§4) Two different cell types have been tested with the inventive compounds. Human normal primary fibroblasts and HaCat cells which are a human keratinocyte cell line.

[2] = target: T1, human PPARδ (Homo sapiens, UniProt Q03181); assay: PPARδ/Gal4 transactivation system; format: cell-based
T1 construct: expressed in transfected cells; host or cells: RK13 or COS-7
T1 sequence (Q03181 211-439 limits assumed): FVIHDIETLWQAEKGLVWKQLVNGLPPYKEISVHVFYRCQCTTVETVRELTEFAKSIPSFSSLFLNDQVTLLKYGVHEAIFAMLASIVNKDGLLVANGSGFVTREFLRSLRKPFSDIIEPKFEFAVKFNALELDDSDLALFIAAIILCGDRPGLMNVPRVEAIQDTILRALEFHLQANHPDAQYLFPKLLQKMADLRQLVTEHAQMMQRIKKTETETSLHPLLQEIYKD
Experimental: (§5) PPAR activation was tested in vitro in RK13 or COS-7 fibroblast cell lines by measuring the transcriptional activity of chimeras composed of the DNA binding domain of the yeast Gal4 transcription factor and the ligand binding domain of the different PPARs. These latter results were then confirmed in cell lines according to the following protocols.
(§6) Culture protocols: RK13 were from ECACC (Porton Down, UK) and were grown in DMEM medium supplemented with 10% (V/V) fetal calf serum, 100 U/ml penicillin (Gibco, Paisley, UK) and 2 mM L-glutamine (Gibco, Paisley, UK). COS-7 cells were from ATCC and were grown in DMEM medium supplemented with 10% (V/V) fetal calf serum, 1% penicillin/streptomycine (Biochrom, AG), 1% of amino acids (Gibco) and 1% sodium pyruvate (Gibco).
(§7) The culture medium was changed every two days. Cells were kept at 37° C. in a humidified 95% air/5% CO2 atmosphere.
(§8) Description of plasmids used for transfection: The plasmids Gal4(RE)_TkpGL3, pGal4-hPPARα, pGal4-hPPARγ, pGal4-hPPARδ and pGal4-φ have been described in the literature (Raspe E et al., 1999). The pGal4-hPPARα, pGal4-hPPARγ and pGal4-hPPARδ constructs were obtained by cloning into the pGal4-φ vector PCR-amplified DNA fragments corresponding to the DEF domains of the human PPARs nuclear receptors.
(§9) Transfection of RK13: RK13 cells were seeded in 24-well culture dishes at 5×10^4 cells/well and transfected for 2 hours with the reporter plasmid Gal4(RE)_TkpGL3 (50 ng/well), the expression vectors pGal4-φ, pGal4-hPPARα, pGal4-hPPARγ and pGal-hPPARδ (100 ng/well) and the transfection efficiency control vector pRL-CMV (1 ng/well) according to the previously described protocol (Raspe E, Madsen L, Lefebvre A M, Leitersdorf I, Gelman L, Peinado-Onsurbe J, Dallongeville J, Fruchart J C, Berge R and Staels B, 1999), then incubated for 36 hours with the test compounds. RK13 cells were incubated with the different compounds at concentrations of 10, 30 and 100 μM or 1, 10 and 100 μM for 24 hours. At the end of the experiment, the cells were lysed (Gibco, Paisley, UK) and luciferase activity was determined with a Dual-Luciferase™ Reporter Assay System kit (Promega, Madison, Wis., USA) according to the supplier's instructions. The protein content of the cell extracts was then measured with the Bio-Rad Protein Assay (Bio-Rad, Munich, Germany) as directed by the supplier.
Transfection of COS7: Cells in suspension are transfected, in the presence of 10% (V/V) fetal calf serum, with 150 ng of DNA per well with a pGal4-PPAR/Gal4(RE)_TkpGL3 ratio of 1/10. […] At the end of the activation period, cells are lysed and luciferase activity is determined, using the Steady Glow Luciferase Kit (Promega), according to the supplier's instructions.

[3] = test system: HaCat cells; assay: Antioxidant properties on cell cultures (carboxy-H2DCFDA fluorescence, AAPH stress), keratinocytes; format: cell-based, human; conditions: AAPH 750 μM; for antioxidant properties on cell cultures (in words): 25 μM for 24 h
Experimental: as §1, §2, §3, §4

[4] = target: T2, human PPARα (Homo sapiens, UniProt Q07869); assay: PPARα/Gal4 transactivation system; format: cell-based; conditions: PPAR/Gal4 transactivation system
T2 construct: expressed in transfected cells; host or cells: RK13 or COS-7
T2 sequence (Q07869 239-466 limits assumed): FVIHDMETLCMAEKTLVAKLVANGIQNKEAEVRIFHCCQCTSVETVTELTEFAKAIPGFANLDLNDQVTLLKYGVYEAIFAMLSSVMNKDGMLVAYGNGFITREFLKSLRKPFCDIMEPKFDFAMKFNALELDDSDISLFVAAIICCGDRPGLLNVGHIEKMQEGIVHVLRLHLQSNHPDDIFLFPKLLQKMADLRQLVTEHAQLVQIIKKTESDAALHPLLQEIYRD
Experimental: as §5, §6, §7, §8, §9
(§10) Transfection of COS7: Cells in suspension are transfected, in the presence of 10% (V/V) fetal calf serum, with 150 ng of DNA per well with a pGal4-PPAR/Gal4(RE)_TkpGL3 ratio of 1/10. Cells are then seeded in 96 well plates (4×10^4 cells/well) and incubated for 24 hours at 37° C. Activation with compounds is performed on 24 hours at 37° C. in culture medium without serum. At the end of the activation period, cells are lysed and luciferase activity is determined, using the Steady Glow Luciferase Kit (Promega), according to the supplier's instructions.

[5] = target: T3, human PPARγ (Homo sapiens, UniProt P37231); assay: PPARγ/Gal4 transactivation system; format: cell-based; conditions: PPAR/Gal4 transactivation system
T3 construct: expressed in transfected cells; host or cells: RK13 or COS-7
T3 sequence (P37231 238-503 limits assumed): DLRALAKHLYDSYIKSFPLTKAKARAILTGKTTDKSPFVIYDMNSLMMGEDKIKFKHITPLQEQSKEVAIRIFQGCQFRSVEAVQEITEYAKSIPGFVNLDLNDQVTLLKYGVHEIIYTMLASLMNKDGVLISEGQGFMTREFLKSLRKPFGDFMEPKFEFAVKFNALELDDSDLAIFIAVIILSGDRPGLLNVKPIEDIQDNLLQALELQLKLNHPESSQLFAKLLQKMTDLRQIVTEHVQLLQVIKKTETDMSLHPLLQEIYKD
Experimental: as §5, §6, §7, §8, §9, §10

[6] = test system: hApoE2 Knock-in transgenic mice; assay: Effects on triglycerides and cholesterol metabolism in vivo; parameters: species or system mouse
Experimental: Treatment of animals: hApoE2 knock-in transgenic mice were kept on a 12-hour light/dark cycle at a constant temperature of 20±3° C. After a 1 week acclimation, mice were separated in groups of 6 animals selected such that the distribution of their body weight and plasmatic lipid levels determined before the experiment were uniform. The test compounds were suspended in carboxymethylcellulose and administered by intragastric gavage at the indicated doses, once a day for 7 or 8 days. Animals had access to food and water ad libitum. At the end of the experiment the animals were weighed and sacrificed under anesthesia. Blood was collected on EDTA. Plasma was prepared by centrifugation at 3000 rpm for 20 minutes. Organs were harvested, frozen in liquid nitrogen and stored at −80° C. for subsequent analysis.
Measurement of serum lipids: Serum lipid concentrations (total cholesterol and triglycerides) were determined by a colorimetric assay (Boehringer, Mannheim, Germany) according to the supplier's instructions.

[7] = test system: C57BLKS-m Lepr^db transgenic mice; assay: Antidiabetic effect on insulin and glucose; format: in vivo, mouse; conditions: 0.1 to 30 mg/Kg/day for 21 days
Experimental: Genetically modified C57BLKS-m Lepr^db mice were used to asses antidiabetic effect of the inventive compounds. Mice were randomized according to their plasma lipid, glucose and insulin contents. Treatments were administered once daily by gavage (10 ml/kg) for the duration of the treatment. For oral administrations, the drugs were suspended in CMC 1% or CMC 1%+Tween 80 0.1%. The plasma glucose was measured using a kit reagent from Biomerieux (France). The plasma insulin was measured using a solid phase two-site enzyme immunoassay from Crystal Chem Inc. (USA). The results are exemplified in FIGS. 5-1 to 5-4 which illustrate the activity of inventive compounds 29 and 62 on glucose and insulin.

[8] = 50 mg/kg/day for 7 or 8 days, FIGS. 4-13, 4-15, 4-17, 4-19
[9] = 50 mg/kg/day for 7 or 8 days, FIGS. 4-14, 4-16, 4-18, 4-20
[10] = 1, 3, 10 and 30 mg/kg/day for 14 days

Question: For `CCCOc1ccc(C(=O)/C=C/c2cc(C)c(OC(C)(C)C(=O)O)c(C)c2)cc1` [Compound 70, 1-[4-propyloxyphenyl]-3-[3,5-dimethyl-4-carboxydimethylmethyloxyphenyl]prop-2-en-1-one], which “% of oxidative reduction versus control cells” value ([1]; compounds at 25 μM for 24 h) is on record?
Answer: 53%

Question: What about the “activation of PPAR δ (in words)” value [2] of the same compound?
Answer: can also activate

Question: And the “% of oxidative reduction versus control cells” value ([3]; compounds at 25 μM for 24 h)?
Answer: 47%

Question: What about the “concentration at which maximal activity is observed” value (“concentration” below) [4] of the same compound?
Answer: 0.03 µM

Question: And the “activation of PPAR γ (in words)” value [5]?
Answer: can also activate

Question: And the plasma cholesterol [6, 8]?
Answer: decrease

Question: And the plasma triglycerides [6, 9]?
Answer: decrease

Question: For `Cc1cc(/C=C/C(=O)c2ccc(SC(F)(F)F)cc2)cc(C)c1OC(C)(C)C(=O)O` [Compound 54, 1-[4-trifluoromethylthiophenyl]-3-[3,5-dimethyl-4-carboxydimethylmethyloxyphenyl]prop-2-en-1-one], which “antioxidant properties on cell cultures (in words)” value (“antioxidant properties” for short) [1] is on record?
Answer: antioxidant properties

Question: And the “activation of PPAR δ (in words)” value [2]?
Answer: can activate

Question: What about the “antioxidant properties” value [3] of the same compound?
Answer: antioxidant properties

Question: What about the “concentration” value [4] of the same compound?
Answer: 0.03 µM

Question: And the “activation of PPAR γ (in words)” value [5]?
Answer: can activate

Question: And the plasma cholesterol [6, 8]?
Answer: decrease

Question: What about the plasma triglycerides [6, 9] of the same compound?
Answer: decrease

Question: `Cc1cc(/C=C/C(=O)c2ccc(OC(F)(F)F)cc2)cc(C)c1OC(C)(C)C(=O)O` [Compound 62] was tested. Which “antioxidant properties” value [1] did it give?
Answer: antioxidant properties

Question: What about the “concentration” value ([2]; PPAR/Gal4 transactivation system) of the same compound?
Answer: 3 µM

Question: And the “antioxidant properties” value [3]?
Answer: antioxidant properties

Question: What about the “concentration” value [4] of the same compound?
Answer: 0.3 µM

Question: And the “concentration” value [5]?
Answer: 10 µM

Question: And the plasma cholesterol [6, 8]?
Answer: decrease

Question: And the plasma triglycerides [6, 9]?
Answer: decrease

Question: What about the plasma cholesterol [6, 10] of the same compound?
Answer: decrease

Question: And the plasma triglycerides [6, 10]?
Answer: decrease

Question: And the plasma glucose level [7]?
Answer: decrease

Question: And the plasma insulin level [7]?
Answer: decrease

Question: How did the “antioxidant properties” value [1] turn out when `Cc1cc(/C=C/C(=O)c2ccc(C(F)(F)F)cc2)cc(C)c1OC(C)(C)C(=O)O` [Compound 58, 1-[4-trifluoromethylphenyl]-3-[3,5-dimethyl-4-carboxydimethylmethyloxyphenyl]prop-2-en-1-one] was run?
Answer: antioxidant properties

Question: What about the “activation of PPAR δ (in words)” value [2] of the same compound?
Answer: can activate

Question: And the “antioxidant properties” value [3]?
Answer: antioxidant properties

Question: What about the “concentration” value [4] of the same compound?
Answer: 0.3 µM

Question: And the “concentration” value [5]?
Answer: 1 µM

Question: And the plasma cholesterol [6, 8]?
Answer: decrease

Question: What about the plasma triglycerides [6, 9] of the same compound?
Answer: decrease
